From ChEMBL document CHEMBL5046254, “Mycobactin Analogues with Excellent Pharmacokinetic Profile Demonstrate Potent Antitubercular Specific Activity and Exceptional Efflux Pump Inhibition” (J Med Chem, 2022)
Converted amounts (≈) assume the structure as drawn.

Experiments:
[1] = system: Mycolicibacterium smegmatis; test: Antitubercular activity against Mycobacterium smegmatis mc2155 ATCC 700084 cultured in GAST-Fe media incubated for 24 hrs by resazurin microtiter assay; assay type: functional
[2] = system: Mycolicibacterium smegmatis; test: Antitubercular activity against Mycobacterium smegmatis mc2155 ATCC 700084 cultured in GAST media incubated for 24 hrs by resazurin microtiter assay; assay type: functional
[3] = system: Mycobacterium tuberculosis; test: microbe, parasite or virus in culture; settings: H37Rv ATCC 27294, 192 h
[4] = system: Mycobacterium tuberculosis; test: microbe, parasite or virus in culture; settings: H37Rv ATCC 27294, 192 h; remark: listed apart in the source
[5] = system: Mycolicibacterium aurum; test: Antimycobacterial activity against Mycobacterium aurum ATCC 10437 cultured in GAST-Fe media incubated for 72 hrs by resazurin microtiter assay; assay type: functional
[6] = system: Mycolicibacterium aurum; test: Antimycobacterial activity against Mycobacterium aurum ATCC 10437 cultured in GAST media incubated for 72 hrs by resazurin microtiter assay; assay type: functional

Compound | MIC90 [1] [µg/mL] | MIC90 [2] [µg/mL] | MIC90 [3] [µg/mL] | MIC90 [4] [µg/mL] | MIC90 [5] [µg/mL] | MIC90 [6] [µg/mL]
Oc1ccccc1C1=NNC(c2ccccc2O)C1 (stereo not given) | 64 (≈ 252 µM) | 64 (≈ 252 µM) | > 256 | 64 (≈ 252 µM) |  | 
CC(=O)N1N=C(c2ccccc2O)CC1c1ccccc1Br (stereo not given) | > 256 | > 256 | > 256 | > 256 |  | 
Cc1ccc(C2CC(c3ccccc3O)=NN2)cc1 (stereo not given) | 64 (≈ 254 µM) | 16 (≈ 63.4 µM) | 32 (≈ 127 µM) | 8 (≈ 31.7 µM) |  | 
CC(=O)N1N=C(c2ccccc2O)CC1c1cccc(O)c1 (stereo not given) | > 256 | > 256 | > 256 | > 256 |  | 
NC(=S)N1N=C(c2ccccc2O)CC1c1ccccc1 (stereo not given) | 256 (≈ 861 µM) | 128 (≈ 430 µM) | 128 (≈ 430 µM) | 4 (≈ 13.5 µM) | 64 (≈ 215 µM) | 64 (≈ 215 µM)
CC(=O)N1N=C(c2ccccc2O)CC1c1ccc(O)cc1 (stereo not given) | > 256 | > 256 | > 256 | > 256 |  | 
Oc1ccccc1C1=NNC(c2ccccc2Br)C1 (stereo not given) | 64 (≈ 202 µM) | 8 (≈ 25.2 µM) | 32 (≈ 101 µM) | 16 (≈ 50.4 µM) |  | 
CC(=O)N1N=C(c2ccccc2O)CC1c1ccc(C)cc1 (stereo not given) | 256 (≈ 870 µM) | > 256 | > 256 | > 256 |  | 
CC(=O)N1N=C(c2ccccc2O)CC1c1ccccc1Cl (stereo not given) | 256 (≈ 813 µM) | > 256 | > 256 | > 256 |  | 
NC(=S)N1N=C(c2ccccc2O)CC1c1ccc(O)cc1 (stereo not given) | > 256 | 256 (≈ 817 µM) | 256 (≈ 817 µM) | 64 (≈ 204 µM) | 128 (≈ 408 µM) | 64 (≈ 204 µM)
CC(=O)N1N=C(c2ccccc2O)CC1c1cccc(Br)c1 (stereo not given) | 256 (≈ 713 µM) | > 256 | > 256 | > 256 |  | 
Oc1cccc(C2CC(c3ccccc3O)=NN2)c1 (stereo not given) | 64 (≈ 252 µM) | 64 (≈ 252 µM) | > 256 | 64 (≈ 252 µM) |  | 
COc1ccccc1C1CC(c2ccccc2O)=NN1C(C)=O (stereo not given) | > 256 | > 256 | > 256 | > 256 |  | 
Cc1ccccc1C1CC(c2ccccc2O)=NN1C(N)=S (stereo not given) | > 256 | 128 (≈ 411 µM) | 16 (≈ 51.4 µM) | 16 (≈ 51.4 µM) |  | 
COc1ccc(C2CC(c3ccccc3O)=NN2C(C)=O)cc1 (stereo not given) | > 256 | > 256 | > 256 | > 256 |  | 
COc1ccc(C2CC(c3ccccc3O)=NN2)cc1O (stereo not given) | > 256 | > 256 | 256 (≈ 900 µM) | 128 (≈ 450 µM) |  | 
CC(=O)N1N=C(c2ccccc2O)CC1c1ccccc1 (stereo not given) | > 256 | > 256 | > 256 | > 256 |  | 
NC(=S)N1N=C(c2ccccc2O)CC1c1ccccc1F (stereo not given) | 128 (≈ 406 µM) | 128 (≈ 406 µM) | 32 (≈ 101 µM) | 16 (≈ 50.7 µM) |  | 
COc1ccccc1C1CC(c2ccccc2O)=NN1 (stereo not given) | 128 (≈ 477 µM) | 64 (≈ 239 µM) | 256 (≈ 954 µM) | 32 (≈ 119 µM) |  | 
CC(=O)N1N=C(c2ccccc2O)CC1c1ccccc1F (stereo not given) | 256 (≈ 858 µM) | 256 (≈ 858 µM) | > 256 | > 256 |  | 
Oc1ccccc1C1=NNC(c2ccccc2Cl)C1 (stereo not given) | 64 (≈ 235 µM) | 8 (≈ 29.3 µM) | 32 (≈ 117 µM) | 16 (≈ 58.7 µM) |  | 
CO[C@H]1/C=C/O[C@@]2(C)Oc3c(C)c(O)c4c(O)c(c(/C=N/N5CCN(C)CC5)c(O)c4c3C2=O)NC(=O)/C(C)=C\C=C\[C@H](C)[C@H](O)[C@@H](C)[C@@H](O)[C@@H](C)[C@H](OC(C)=O)[C@@H]1C [RIFAMPIN] | 8 (≈ 9.72 µM) | 8 (≈ 9.72 µM) | 0.005 (≈ 0.00608 µM) | 0.03 (≈ 0.0365 µM) |  | 
COc1ccc(C2CC(c3ccccc3O)=NN2C(C)=O)cc1O (stereo not given) | > 256 | > 256 | > 256 | > 256 |  | 
CC(=O)N1N=C(c2ccccc2O)CC1c1ccccc1C (stereo not given) | 256 (≈ 870 µM) | > 256 | > 256 | > 256 |  | 
